Measured values: patent US11331299B2, “Medicinal use of serrulatane diterpenes” (The University of Sydney, priority 2016, dated 2022)

Key:
PB1(3) (h) bromodomain = target: T1, PB1(3) (h) bromodomain (Homo sapiens, UniProt Q86U86); test: Epigenetic binding assay, Bromodomain; conditions: read-out: % Inhibition of Control Specific Binding
T1 construct: Bromodomain

[1] = target: T2, Nicotinamide N-methyltransferase (h) (Homo sapiens, UniProt P40261); test: Epigenetic enzyme assay, Small molecule methyltransferases; format: biochemical; conditions: read-out: % Inhibition of Control Values
T2 sequence (P40261 1-264): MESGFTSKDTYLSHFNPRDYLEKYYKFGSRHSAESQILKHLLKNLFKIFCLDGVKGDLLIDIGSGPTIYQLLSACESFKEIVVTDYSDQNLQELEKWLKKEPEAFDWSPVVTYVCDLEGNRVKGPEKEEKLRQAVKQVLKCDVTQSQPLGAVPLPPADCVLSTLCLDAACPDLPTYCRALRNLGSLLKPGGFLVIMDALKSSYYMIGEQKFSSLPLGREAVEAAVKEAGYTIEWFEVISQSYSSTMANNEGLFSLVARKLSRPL

JMJD2D (h) = target: T3, JMJD2D (h) (Homo sapiens, UniProt Q6B0I6); test: Epigenetic enzyme assay, Demethylases (KDMs); format: biochemical; conditions: read-out: % Inhibition of Control Values
T3 sequence (Q6B0I6 1-523): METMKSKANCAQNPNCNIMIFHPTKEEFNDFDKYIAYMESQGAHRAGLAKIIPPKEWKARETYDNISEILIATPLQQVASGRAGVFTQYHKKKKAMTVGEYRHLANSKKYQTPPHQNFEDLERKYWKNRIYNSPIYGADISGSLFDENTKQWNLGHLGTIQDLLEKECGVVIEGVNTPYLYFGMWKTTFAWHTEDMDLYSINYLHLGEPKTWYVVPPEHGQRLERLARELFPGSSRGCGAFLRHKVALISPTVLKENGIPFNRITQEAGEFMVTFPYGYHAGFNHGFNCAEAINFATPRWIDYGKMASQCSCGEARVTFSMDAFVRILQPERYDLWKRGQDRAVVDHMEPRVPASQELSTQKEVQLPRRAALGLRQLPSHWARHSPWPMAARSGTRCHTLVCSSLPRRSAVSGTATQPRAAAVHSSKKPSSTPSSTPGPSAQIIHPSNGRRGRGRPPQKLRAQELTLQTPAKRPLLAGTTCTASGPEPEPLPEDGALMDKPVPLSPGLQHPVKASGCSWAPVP

H3K9 me2 = test: Cell-based detection methyl modifications; conditions: read-out: % Inhibition of Control Values
HDAC4 (h) = HDAC4 (h) (Homo sapiens, UniProt P56524); test: Epigenetic enzyme assay, Histone deacetylase (HDACs); format: biochemical; conditions: read-out: % Inhibition of Control Values
HDAC4 (h), sequence (P56524 whole entry): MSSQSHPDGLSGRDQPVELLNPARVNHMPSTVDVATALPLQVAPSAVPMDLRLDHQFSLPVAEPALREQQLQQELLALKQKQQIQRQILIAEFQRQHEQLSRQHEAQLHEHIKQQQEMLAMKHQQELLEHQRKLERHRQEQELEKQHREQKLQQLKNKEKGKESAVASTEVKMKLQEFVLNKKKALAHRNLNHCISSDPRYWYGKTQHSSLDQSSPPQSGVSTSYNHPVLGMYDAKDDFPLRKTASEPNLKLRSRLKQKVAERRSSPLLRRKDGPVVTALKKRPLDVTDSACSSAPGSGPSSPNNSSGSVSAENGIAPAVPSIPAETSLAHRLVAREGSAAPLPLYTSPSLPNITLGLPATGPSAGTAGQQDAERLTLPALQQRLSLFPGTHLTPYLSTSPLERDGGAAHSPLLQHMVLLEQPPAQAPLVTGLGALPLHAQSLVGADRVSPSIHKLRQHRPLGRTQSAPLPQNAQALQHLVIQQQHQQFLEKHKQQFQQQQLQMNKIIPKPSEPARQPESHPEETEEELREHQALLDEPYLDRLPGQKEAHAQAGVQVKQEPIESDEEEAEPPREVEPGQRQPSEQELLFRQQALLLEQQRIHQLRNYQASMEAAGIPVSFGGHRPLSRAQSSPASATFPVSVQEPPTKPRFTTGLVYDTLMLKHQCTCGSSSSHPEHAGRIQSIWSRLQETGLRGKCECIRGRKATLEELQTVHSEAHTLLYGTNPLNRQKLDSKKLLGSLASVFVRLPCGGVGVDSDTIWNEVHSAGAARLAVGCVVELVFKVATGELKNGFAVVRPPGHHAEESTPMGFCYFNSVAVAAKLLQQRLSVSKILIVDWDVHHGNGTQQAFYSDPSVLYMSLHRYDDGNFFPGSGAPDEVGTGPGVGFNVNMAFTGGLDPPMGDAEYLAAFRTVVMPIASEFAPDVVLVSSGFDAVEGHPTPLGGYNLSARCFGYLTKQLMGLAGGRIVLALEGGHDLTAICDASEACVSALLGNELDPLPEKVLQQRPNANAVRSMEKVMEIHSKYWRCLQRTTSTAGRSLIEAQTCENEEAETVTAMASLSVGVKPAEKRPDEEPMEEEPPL

hSMYD2 = hSMYD2 (Homo sapiens, UniProt Q9NRG4); test: Epigenetic enzyme assay, Methyltransferases (MTs); format: biochemical; conditions: for inhibition at 10 µM: read-out: % Inhibition of Control Values
hSMYD2, sequence (Q9NRG4 whole entry): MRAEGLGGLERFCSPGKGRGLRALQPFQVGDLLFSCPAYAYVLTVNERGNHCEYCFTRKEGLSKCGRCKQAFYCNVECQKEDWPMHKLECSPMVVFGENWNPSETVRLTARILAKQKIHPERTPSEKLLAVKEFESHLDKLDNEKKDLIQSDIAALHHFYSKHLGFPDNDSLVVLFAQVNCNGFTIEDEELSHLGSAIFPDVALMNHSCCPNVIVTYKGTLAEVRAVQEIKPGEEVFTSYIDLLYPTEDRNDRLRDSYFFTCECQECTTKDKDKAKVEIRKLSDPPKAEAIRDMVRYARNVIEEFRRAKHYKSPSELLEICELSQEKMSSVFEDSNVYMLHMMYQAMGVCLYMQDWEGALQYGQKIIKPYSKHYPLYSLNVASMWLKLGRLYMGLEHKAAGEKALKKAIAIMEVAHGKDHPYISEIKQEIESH

[2] = target: T4, Phenylethanolamine N-methyltransferase (h) (Homo sapiens, UniProt P11086); test: Epigenetic enzyme assay, Small molecule methyltransferases; format: biochemical; conditions: read-out: % Inhibition of Control Values
T4 sequence (P11086 1-282): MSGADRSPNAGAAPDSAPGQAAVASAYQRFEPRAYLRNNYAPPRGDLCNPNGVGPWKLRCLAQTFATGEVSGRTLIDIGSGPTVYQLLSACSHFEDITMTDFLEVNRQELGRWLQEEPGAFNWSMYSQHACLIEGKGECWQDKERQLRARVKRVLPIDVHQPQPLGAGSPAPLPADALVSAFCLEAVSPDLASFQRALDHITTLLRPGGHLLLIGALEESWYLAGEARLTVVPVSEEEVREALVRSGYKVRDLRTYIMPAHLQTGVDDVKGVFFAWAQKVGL

Chemokine CX3CR1 = target: T5, Chemokine CX3CR1 (Homo sapiens, UniProt P49238); test: Chemokine CX3CR1 radio ligand binding; conditions: assay year 2015
T5 construct: expressed in transfected cells; host or cells: Chem-1 cells
T5 sequence (P49238 1-355): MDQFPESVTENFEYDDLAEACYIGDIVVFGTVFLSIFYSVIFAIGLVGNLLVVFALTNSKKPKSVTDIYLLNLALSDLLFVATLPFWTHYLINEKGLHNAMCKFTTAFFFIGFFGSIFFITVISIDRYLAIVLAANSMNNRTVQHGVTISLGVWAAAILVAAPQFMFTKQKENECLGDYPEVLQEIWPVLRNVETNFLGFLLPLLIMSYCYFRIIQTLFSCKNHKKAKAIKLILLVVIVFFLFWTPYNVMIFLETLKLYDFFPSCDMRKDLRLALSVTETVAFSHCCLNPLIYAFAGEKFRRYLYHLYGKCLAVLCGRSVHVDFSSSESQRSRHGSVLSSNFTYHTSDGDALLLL
Protocol: The in vitro pharmacological studies were conducted by Eurofins PanLab (Taiwan) using the parameters shown in Table 13 with respect to appropriate literature references.

SUV4-20H2 (h) = SUV4-20H2 (h) (Homo sapiens, UniProt Q86Y97); test: Epigenetic enzyme assay, Methyltransferases (MTs); format: biochemical; conditions: for inhibition at 10 µM: read-out: % Inhibition of Control Values
SUV4-20H2 (h), sequence (Q86Y97 whole entry): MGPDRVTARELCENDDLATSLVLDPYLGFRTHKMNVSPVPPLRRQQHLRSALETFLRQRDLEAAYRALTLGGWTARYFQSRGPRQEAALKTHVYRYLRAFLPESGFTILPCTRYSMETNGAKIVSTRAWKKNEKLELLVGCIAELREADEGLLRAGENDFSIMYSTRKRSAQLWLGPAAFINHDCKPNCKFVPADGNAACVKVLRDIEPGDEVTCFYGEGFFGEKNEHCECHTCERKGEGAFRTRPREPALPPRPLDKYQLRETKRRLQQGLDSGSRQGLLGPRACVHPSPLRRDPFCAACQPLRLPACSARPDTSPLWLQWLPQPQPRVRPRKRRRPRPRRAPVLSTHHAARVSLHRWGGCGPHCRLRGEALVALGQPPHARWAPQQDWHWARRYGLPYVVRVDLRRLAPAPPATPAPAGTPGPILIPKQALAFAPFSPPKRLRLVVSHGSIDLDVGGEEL

T1 sequence (Q86U86 381-487 limits assumed): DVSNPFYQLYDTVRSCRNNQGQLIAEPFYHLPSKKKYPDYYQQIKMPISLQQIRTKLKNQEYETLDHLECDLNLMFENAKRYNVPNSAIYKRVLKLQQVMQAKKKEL

`CC(C)=CCC[C@H](CO)[C@@H]1CC[C@@H](C)c2c1cc(C)c(O)c2O` [Compound 1, 7,8,18-trihydroxyserrulat-14-ene] was tested, and the inhibition at 10 µM (PB1(3) (h) bromodomain) was 38%, the inhibition at 10 µM [1] was 13% and the inhibition at 10 µM (JMJD2D (h)) was 36%. It also gave an inhibition at 10 µM (H3K9 me2) of 1%, an inhibition at 10 µM (HDAC4 (h)) of -73% and an inhibition at 10 µM (hSMYD2) of 12%. For the same compound, the inhibition at 10 µM [2] was 23%, the percent of control response at 10 µM (Chemokine CX3CR1) was -1% and the inhibition at 10 µM (SUV4-20H2 (h)) was 11%.

With `CC(C)=CCC[C@@H]1C(O)Oc2c(C)cc(O)c3c2[C@H]1CC[C@H]3C` (some centres unmarked) [Compound 2, 5,18-epoxyserrulat-14-en-8,18-diol] the inhibition at 10 µM (PB1(3) (h) bromodomain) was 13%, the inhibition at 10 µM [1] was -2% and the inhibition at 10 µM (JMJD2D (h)) was -17%. The inhibition at 10 µM (H3K9 me2) was 11%, the inhibition at 10 µM (HDAC4 (h)) was -20% and the inhibition at 10 µM (hSMYD2) was 5%. It also gave an inhibition at 10 µM [2] of 9%, a percent of control response at 10 µM (Chemokine CX3CR1) of 5% and an inhibition at 10 µM (SUV4-20H2 (h)) of 20%.

In the case of `CC(C)=CCC[C@@H]1COc2c(C)cc(O)c3c2[C@H]1CC[C@H]3C` [Compound 3, 5,18-epoxy-8-hydroxyserrulat-14-ene], the inhibition at 10 µM (PB1(3) (h) bromodomain) is reported as 6%, the inhibition at 10 µM [1] is reported as -2% and the inhibition at 10 µM (JMJD2D (h)) is reported as 18%. It also gave an inhibition at 10 µM (H3K9 me2) of 20%, an inhibition at 10 µM (HDAC4 (h)) of -11% and an inhibition at 10 µM (hSMYD2) of -12%. For the same compound, the inhibition at 10 µM [2] was 5%, the percent of control response at 10 µM (Chemokine CX3CR1) was 7% and the inhibition at 10 µM (SUV4-20H2 (h)) was -45%.

Compound `Nc1ncnc2c1ncn2[C@@H]1O[C@H](CSCC[C@H](N)C(=O)O)[C@@H](O)[C@H]1O` [SAH] has an IC50 (hSMYD2; read-out: Reference IC50) of 160 nM and an IC50 (SUV4-20H2 (h); read-out: Reference IC50) of 4700 nM.
